{
  "source": "patent US12193994B2",
  "about": "“Combination of a cell therapy and a gamma secretase inhibitor” (Juno Therapeutics, Inc., priority 2017, dated 2025)",
  "key": {"[1]": {"test_system": "multiple myeloma tumor", "experiment": "BCMA expression on tumors after oral LY3039478 in an alternative multiple myeloma tumor cell model", "format": "in vivo, mice", "conditions": "0.1 mg/kg or 1 mg/kg, two oral administrations", "method": "Specifically, NOD.Cg.PrkdescidIL2rgtm1 Wjl/SzJ (NSG) mice were injected subcutaneously (s.c.) with 1E+07 RPMI-8226 cells modified to express GFP and firefly luciferase (RPMI-8226 ffluc) and tumors were allowed to grow. […]\nFIG. 6 depicts analysis of blood samples, taken at 0, 0.5, 2, 6, 18, 24, 36, and 48 hour post-administration, for plasma levels of the drug. […] Tumor cells at 2 hours, 24 hours or 48 hours after administration of LY3039478 or vehicle control in the study were assessed for surface expression of BCMA."}, "[2]": {"test_system": "RPMI-8226 human multiple myeloma xenograft", "format": "in vivo", "method": "Anti-tumor effects following administration of anti-BCMA CAR T cells and a gamma secretase inhibitor compound, LY3039478, each, individually, and in combination, were assessed in a RPMI-8226 human multiple myeloma xenograft mouse model. The anti-BCMA CAR-expressing T cells were generated as described in Example 2.\nNOD.Cg.PrkdescidIL2rgtm1 Wjl/SzJ (NSG) mice were injected subcutaneously (s.c.) with 1E+07 RPMI-8226 cells modified to express GFP and firefly luciferase (RPMI-8226 ffluc), and tumor volume was allowed to increase over the course of 25 days, the 25th day being designated “day 0” in this study. Animals were divided into 8 groups, and each group received one of the following treatments: (1) vehicle only, (2) LY3039478 (3 mg/kg) only, (3) Mock T cells (not expressing the CAR) (3.00E+06 T cells per mouse) and vehicle, (4) Mock T cells (3.00E+06 T cells per mouse) and LY3039478 (3 mg/kg), (5) anti-BCMA CAR+ T cells (1.00E+06 CAR+ cells per mouse) and vehicle, (6) anti-BCMA CAR+ T cells (1.00E+06 CAR+ cells per mouse) and LY3039478 (3 mg/kg), (7) anti-BCMA CAR+ T cells (3.00E+06 CAR+ cells per mouse) and vehicle, or (8) anti-BCMA CAR+ T cells (3.00E+06 CAR+ cells per mouse) and LY3039478 (3 mg/kg). In each group, LY3039478 or vehicle was delivered by mouth (p.o.) at day-1 and at day zero (0) and every other day (e.o.d.) up to day 21. Where applicable, T cells were administered by a single intravenous (i.v.) injection on day 0.\nCAR+ T cells in blood and in tumor were assessed on days 7, […], 21, and 28 by flow cytometry using antibodies specific for cell surface markers and a reagent specific to the anti-BCMA CAR. Animal survival was monitored throughout the study.\nThe presence of CAR+ T cells in the blood was monitored over the course of the study (from blood drawn on days 7, 14, 21 and 28 post CAR-T cell administration). White blood cells from blood samples were stained with various reagents to detect various markers on the surface of immune cells, including T cells, and expression of the CAR (including a reagent specific for the CAR and a reagent specific for a transduction marker encoded by the CAR vector).\nTumor digests were also analyzed to determine the number of CD4+ and CD8+ CAR+ T cells in tumors following the various treatment conditions. […] Serum BCMA was also assessed according to treatment condition."}, "[3]": {"test_system": "OPM2 target cells", "experiment": "Similar study: concentration dependence of cytokine production by anti-BCMA CAR-T cells", "format": "cell-based", "conditions": "Homo sapiens, OPM-2; OPM2, one exemplary donor, IFN-gamma (FIG. 3E); read-out: increasing cytokine production by anti-BCMA CAR-T cells, IC50", "method": "(§1) The production of cytokines by anti-BCMA CAR-T cells in the presence or absence of LY3039478 was assessed by monitoring cytokine levels in the supernatants of co-cultures of CAR-T cells with BCMA-expressing target cells. CAR-T cells generated as described in this Example above were cultured with either OPM2 or RPMI-8226 target cells in the absence of LY3039478 or in the presence of LY3039478 at concentrations of 0.1 nM, 1 nM, 10 nM, 100 nM, 1000 nM, 10000 nM or 100000 nM (the range covering the estimated human pharmacokinetic range is shown by the boxes in FIGS. 3A-3D). Culture supernatants were harvested after 24 hours, and IFNγ and IL-2 were measured from the culture supernatants.\nA similar study was carried out to further assess the effects of different concentrations of LY3039478, including concentrations within the estimated Cmax/Cmin for the inhibitor, on the ability of anti-BCMA CAR-T cells generated as described in this Example 2 above to produce cytokines following co-culture with OPM2 target cells."}, "[4]": {"test_system": "OPM2 or RPMI-8226 target cells", "experiment": "Cytokine production by anti-BCMA CAR-T cells co-cultured with target cells +/- LY3039478", "format": "cell-based, human", "conditions": "24 hours co-culture, vs absence of LY3039478", "method": "as §1"}, "[5]": {"test_system": "anti-BCMA CAR+ T cells", "experiment": "Anti-BCMA CAR+ T cells incubated with BCMA-containing beads +/- LY3039478 (Luminex)", "format": "cell-based, human", "conditions": "different concentrations", "method": "Various parameters indicative of T cell function were assessed following incubation of anti-BCMA CAR+ T cells with BCMA-containing beads in the presence of different concentrations of the gamma secretase inhibitor, LY3039478, or vehicle (DMSO). Supernatant was harvested after 24 hours and production of TNF-alpha, IFN-gamma and IL-2 were measured using a Luminex Multiplex Assay."}, "[6]": {"conditions": "no CAR+ T cells, LY3039478 3 mg/kg p.o. alone or with Mock T cells 3.00E+06"}},
  "data": [
    {"smiles": "C[C@H](NC(=O)CCC(F)(F)F)C(=O)N[C@@H]1C(=O)N(CCO)c2ncccc2-c2ccccc21", "note": "[LY3039478, 4,4,4-trifluoro-N-[(1S)-2-[[(7S)-5-(2-hydroxyethyl)-6-oxo-7H-pyrido[2,3-d][3]benzazepin-7-yl]amino]-1-methyl-2-oxo-ethyl]butanamide]", "values": [
      {"measurement": "BCMA expression on tumors", "setting": "[1]", "result": "Increased BCMA expression"},
      {"measurement": "Day 65 Survival %", "setting": "[2]; [6]", "result": 0, "unit": "%"},
      {"measurement": "Median Survival", "setting": "[2]; [6]", "result": 22.5, "unit": "days"},
      {"measurement": "Number of deaths", "setting": "[2]; [6]", "result": 10},
      {"measurement": "surface BCMA MFI on RPMI-8226 tumor cells (tumor digests, flow cytometry)", "setting": "[2]; presence of LY3039478, days 7 and 15", "result": "increased"},
      {"measurement": "peripheral blood count of CD4+ or CD8+ T cells that did not express the anti-BCMA CAR", "setting": "[2]; treated with or without LY3039478", "result": "No changes"},
      {"measurement": "IC50", "setting": "[3]", "result": "0.1 to 0.25", "unit": "nM"},
      {"measurement": "production of IFN-gamma in supernatant", "setting": "[4]", "result": "increased"},
      {"measurement": "production of IL-2 in supernatant", "setting": "[4]", "result": "increased"},
      {"measurement": "CAR+ T cell count", "setting": "[5]", "result": "did not impact"},
      {"measurement": "viability", "setting": "[5]", "result": "did not impact"},
      {"measurement": "cytokine production (TNF-alpha, IFN-gamma and IL-2)", "setting": "[5]; 24 hours", "result": "did not impact"}
    ]}
  ]
}
